Source: patent US9149038B2, “4-amino-6-(heterocyclic)picolinates and 6-amino-2-(heterocyclic)pyrimidine-4-carboxylates and their use as herbicides” (Dow AgroSciences LLC, priority 2013, dated 2015)
Where two headings read alike, the source gives them in different places.

Test system: Wheat and Barley and weed species
Test: Post-Emergent Test III: postemergent herbicidal activity in wheat and barley, visual rating after 21 d and probit GR20/GR50/GR80/GR90 (Tables 9-13)
Type: in vivo
Details: for pest or weed control at 17.5 g/ha / pest or weed control at 35 g/ha / pest or weed control at 70 g/ha: post-emergence, 504 h
Summary of the method: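 Greenhouse plants (~18/17 °C, 14 h photoperiod) at second–third true leaf stage sprayed at 187 L/ha with a high rate and ½× to 1/16× serial dilutions. Visual injury 0–100% versus solvent-blank controls scored at 21 d; GR20, GR50, GR80 and GR90 derived by probit analysis across rates.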

## COC(=O)c1nc(-c2cc3c(cc2F)OC(F)(F)O3)cc(N)c1Cl [Compound 32]
ALOMY black-grass (Alopecurus myosuroides), growth reduction of 50%, probit analysis
  GR50 ALOMY: 5 g ai/ha
ALOMY black-grass (Alopecurus myosuroides), growth reduction of 80%, probit analysis
  GR80 ALOMY: 12 g ai/ha
ALOMY black-grass (Alopecurus myosuroides), growth reduction of 90%, probit analysis
  GR90 ALOMY: 18 g ai/ha
AVEFA wild oat (Avena fatua), 17.5 g ai/ha
  Visual Growth Reduction (%) 21 Days After Application AVEFA: E (45-59)
AVEFA wild oat (Avena fatua), 35 g ai/ha
  Visual Growth Reduction (%) 21 Days After Application AVEFA: D (60-74)
AVEFA wild oat (Avena fatua), 70 g ai/ha
  Visual Growth Reduction (%) 21 Days After Application AVEFA: D (60-74)
AVEFA wild oat (Avena fatua), growth reduction of 50%, probit analysis
  GR50 AVEFA: 31 g ai/ha
AVEFA wild oat (Avena fatua), growth reduction of 80%, probit analysis
  GR80 AVEFA: >70 g ai/ha
AVEFA wild oat (Avena fatua), growth reduction of 90%, probit analysis
  GR90 AVEFA: >70 g ai/ha
HORVS barley, spring (crop), growth reduction of 20%, probit analysis
  GR20 HORVS: 3 g ai/ha
Hordeum vulgare, HORVS barley, spring (crop), 17.5 g ai/ha, read-out: Visual Growth Reduction (%) 21 Days After Application HORVS
  pest or weed control at 17.5 g/ha: 45 to 59%
Hordeum vulgare, HORVS barley, spring (crop), 35 g ai/ha, read-out: Visual Growth Reduction (%) 21 Days After Application HORVS
  pest or weed control at 35 g/ha: 60 to 74%
Hordeum vulgare, HORVS barley, spring (crop), 70 g ai/ha, read-out: Visual Growth Reduction (%) 21 Days After Application HORVS
  pest or weed control at 70 g/ha: 60 to 74%
LOLSS ryegrass, growth reduction of 50%, probit analysis
  GR50 LOLSS: 54 g ai/ha
LOLSS ryegrass, growth reduction of 80%, probit analysis
  GR80 LOLSS: >70 g ai/ha
LOLSS ryegrass, growth reduction of 90%, probit analysis
  GR90 LOLSS: >70 g ai/ha
PHAMI lesser canary grass (Phalaris minor), 17.5 g ai/ha
  Visual Growth Reduction (%) 21 Days After Application PHAMI: G (0-29)
PHAMI lesser canary grass (Phalaris minor), 35 g ai/ha
  Visual Growth Reduction (%) 21 Days After Application PHAMI: F (30-44)
PHAMI lesser canary grass (Phalaris minor), 70 g ai/ha
  Visual Growth Reduction (%) 21 Days After Application PHAMI: E (45-59)
PHAMI lesser canary grass (Phalaris minor), growth reduction of 50%, probit analysis
  GR50 PHAMI: 65 g ai/ha
PHAMI lesser canary grass (Phalaris minor), growth reduction of 80%, probit analysis
  GR80 PHAMI: >70 g ai/ha
PHAMI lesser canary grass (Phalaris minor), growth reduction of 90%, probit analysis
  GR90 PHAMI: >70 g ai/ha
TRZAS wheat, spring (crop), growth reduction of 20%, probit analysis
  GR20 TRZAS: 1 g ai/ha
Triticum aestivum, TRZAS wheat, spring (crop), 17.5 g ai/ha, read-out: Visual Growth Reduction (%) 21 Days After Application TRZAS
  pest or weed control at 17.5 g/ha: 60 to 74%
Triticum aestivum, TRZAS wheat, spring (crop), 35 g ai/ha, read-out: Visual Growth Reduction (%) 21 Days After Application TRZAS
  pest or weed control at 35 g/ha: 60 to 74%
Triticum aestivum, TRZAS wheat, spring (crop), 70 g ai/ha, read-out: Visual Growth Reduction (%) 21 Days After Application TRZAS
  pest or weed control at 70 g/ha: 75 to 84%
ALOMY black-grass (Alopecurus myosuroides), 17.5 g ai/ha, read-out: Visual Growth Reduction (%) 21 Days After Application ALOMY
  pest or weed control at 17.5 g/ha: 85 to 94%
ALOMY black-grass (Alopecurus myosuroides), 35 g ai/ha, read-out: Visual Growth Reduction (%) 21 Days After Application ALOMY
  pest or weed control at 35 g/ha: 95 to 100%
ALOMY black-grass (Alopecurus myosuroides), 70 g ai/ha, read-out: Visual Growth Reduction (%) 21 Days After Application ALOMY
  pest or weed control at 70 g/ha: 95 to 100%
LOLSS ryegrass, 17.5 g ai/ha, read-out: Visual Growth Reduction (%) 21 Days After Application LOLSS
  pest or weed control at 17.5 g/ha: 0 to 29%
LOLSS ryegrass, 35 g ai/ha, read-out: Visual Growth Reduction (%) 21 Days After Application LOLSS
  pest or weed control at 35 g/ha: 30 to 44%
LOLSS ryegrass, 70 g ai/ha, read-out: Visual Growth Reduction (%) 21 Days After Application LOLSS
  pest or weed control at 70 g/ha: 60 to 74%
